These results are taken from ChEMBL document CHEMBL1157539, “Thousands of chemical starting points for antimalarial lead identification” (Nature, 2010).

For this assay, the system named is Plasmodium falciparum. The assay can be described thus: GSK_TCMDC: Inhibition of Plasmodium falciparum 3D7 in whole erythrocytes, using parasite LDH activity as an index of growth. The class given is functional, organism-based. Conditions: Plasmodium falciparum, 3D7.
The compound `COc1cccc2c(N/N=C/c3ccccc3[N+](=O)[O-])cc(C)nc12` yielded an XC50 of 424 nM.

In turn, `CN(C)c1cc(NC(=O)Nc2ccccc2)c2ccccc2n1` showed an XC50 of 405 nM.

The compound `O=C(Cn1c(CCc2cccc(F)c2F)cc(=O)c2cccnc21)N(CCN1CCCC1)Cc1ccc(-c2ccc(C(F)(F)F)cc2)cc1` returned an XC50 of 890 nM.

As to `CS(=O)(=O)c1ccc(-c2nc(NCC3CCCCC3)cc(C(F)(F)F)n2)cc1`, the XC50 was 667 nM.

As to `CCc1ccc(CN2CCC(CNC(=O)c3cc(-c4cccc(C(F)(F)F)c4)cs3)C2)cc1` (configuration not stated), the XC50 was 753 nM.

Compound `CCc1cn2c3c(cc(C(=O)N[C@@H](Cc4ccccc4)[C@H](O)CNC4CCOCC4)cc13)N(CC(F)(F)F)S(=O)(=O)CC2` displayed an XC50 of 29.6 nM.

For the compound `CN1CCN(c2ccnc3ccc(NC(=O)Nc4ccc(-c5ccncc5)c5ccccc45)cc23)CC1`, the XC50 worked out at 312 nM.

On to `CC(C)c1cc(Oc2c(I)cc(CCNCc3ccccc3)cc2I)ccc1O`, for which the XC50 came out at 536 nM.

`COCCN1CCC(NCC(C)(C)c2nc(-c3ccc(Cl)c(O)c3)c(-c3ccncc3)[nH]2)CC1` had an XC50 of 717 nM.

In the case of `N#Cc1nc2ccc(OCCN(Cc3ccccc3C(F)(F)F)c3ccc(C#N)c(C(F)(F)F)c3)cc2s1`, the XC50 was found to be 855 nM.

Turning to `COc1cc2nc(N3CCN(C(=O)c4ccc(N(C(=O)OC(C)(C)C)C(=O)OC(C)(C)C)cc4)CC3)nc(N)c2cc1OC`, the XC50 was determined as 1000 nM.

For the compound `CCCCOC(=O)C1=C(C)NC2=C(C(=O)CC(c3ccc(OC)c(OC)c3)C2)C1c1ccc(O)cc1` (configuration not stated), the XC50 was determined as 834 nM.

With `COc1ccc(NC(=O)CSc2nc(-c3ccccc3Cl)ns2)cc1OC`, the XC50 was 759 nM.

In the case of `FC(F)(F)c1cccc(-c2cc(NCCCn3ccnc3)nc(-c3ccncc3)n2)c1`, the XC50 amounted to 105 nM.

In turn, `CC1(C)N=C(N)N=C(N)N1OCCCc1ccccc1` showed an XC50 of 3.2 nM.

`C=CCc1ccccc1OCC(O)CN(C1CCCCC1)C1CCCCC1` (configuration not stated) gave an XC50 of 814 nM.

The compound `CCCCCc1cnc2nc(N)nc(N)c2c1` came in with an XC50 of 1230 nM.

Regarding `O=C(Nc1ccccc1)Nc1cccc(-c2cc(CNCCc3ccccc3)sc2-c2ccncc2)c1`, the XC50 amounted to 598 nM.

In the case of `Nc1nc(N)c2cc(Cc3ccccc3Cl)cnc2n1`, the XC50 stood at 106 nM.

The compound `CC(=O)Nc1ccc(C2NC(=O)NC(c3ccccc3)=C2c2nc3ccccc3s2)cc1` (configuration not stated) gave an XC50 of 1110 nM.

Turning to `COc1cccc2cc(C(=O)N[C@@H](CC(C)C)C(=O)N[C@H](C=NN3CCCC3=O)Cc3ccccc3)oc12`, the XC50 amounted to 558 nM.

Compound `CN(C)c1nc(NN=Cc2cc(Cl)ccc2O)nc(Nc2ccc(F)cc2)n1` returned an XC50 of 837 nM.

As to `COc1ccc2nccc([C@@H](O)CN3CCC(NC(=O)c4ccc(-c5ccccc5)s4)CC3)c2c1`, the XC50 is 310 nM.

The compound `CN1CCC(NCc2ccc(-c3ccc(C(F)(F)F)cc3)cc2)CC1` had an XC50 of 798 nM.

Take `CC(C)NCc1cccc(-c2cccc(NC(=O)c3ccc(C#N)cc3)c2)c1`: the XC50 was determined as 646 nM.

For `CC(C)(C)c1ccc(S(=O)(=O)Nc2ccccc2N2CCOCC2)cc1`, the XC50 was found to be 683 nM.

`CCCc1cc(OCCCOc2ccccc2)ccc1OCCCON1C(=N)N=C(N)NC1(C)C` registered an XC50 of 3.2 nM.

For the compound `Nc1ccncc1C(=O)NCCCCN1CCN(c2nsc3ccccc23)CC1`, the XC50 was determined as 803 nM.

Regarding `CS(=O)(=O)CCNCc1cccc(-c2ccc3c(Nc4ccc(Oc5cccnc5)cc4)ccnc3c2)c1`, the XC50 is 142 nM.

In turn, `Cc1cccc(/C=C/C(=O)NC2CCC(N3CCC(c4ccccc4C)CC3)CC2)c1` (configuration not stated) returned an XC50 of 1110 nM.

Consider `CCCc1ccc(N2C(N)=NC(N)=NC2(C)C)cc1`, for which the XC50 was determined as 28.4 nM.

`CCc1c[nH]c2c(N(c3ccccc3)S(C)(=O)=O)cc(C(=O)N[C@@H](Cc3ccccc3)[C@H](O)CNCc3cccc(C(F)(F)F)c3)cc12`: the XC50 was 997 nM.

For `CN(C)C(=O)c1ccc(CN(Cc2ccc3c(c2)OCCO3)Cc2ccc3c(c2)OCO3)cc1`, the XC50 turned out to be 175 nM.

`CCc1ccc(NC(=O)c2cccc(CN3CCCN(Cc4ccc(OC)cc4)CC3)c2)cc1` returned an XC50 of 919 nM.

In turn, `COc1cccc(OC)c1CN1CCC(N(C)CCCCCCCCN2CCC(OC(=O)Nc3ccccc3-c3ccccc3)CC2)CC1` returned an XC50 of 458 nM.

`O=C(/C=C/c1ccc(Cl)cc1)NCCCCCN1CCCN(C(=O)Nc2cccc(Cl)c2)CC1` displayed an XC50 of 1000 nM.

Compound `Cc1ccc(/C=C/C(=O)NC2CCC(N3CCC(c4ccccc4C)CC3)CC2)cc1F` (configuration not stated) had an XC50 of 1040 nM.

`CCCNCc1ccc(-c2ccc(CN(C(=O)c3nn(-c4ccccc4)nc3C)C3CC3)cc2)nc1` gave an XC50 of 210 nM.

On to `CCN(CC)CCCNc1ncc2c(-c3ccc(NC(=O)Nc4cc(C(F)(F)F)ccc4F)c(F)c3)nn(C)c2n1`, for which the XC50 is 272 nM.

`Cn1cc(CCNc2ccnc(NCCc3coc4ccccc34)n2)c2ccccc21`: the XC50 was 1060 nM.

In turn, `Cc1cc(N[C@@H](CC(C)C)C(=O)NC2CCCC2)nc(NCc2ccccc2C)n1` returned an XC50 of 1340 nM.

Turning to `N#Cc1ccc(NC(=O)NC2CCN(CCCCCNC(=O)/C=C/c3ccc(Cl)c(Cl)c3)CC2)cc1`, the XC50 turned out to be 800 nM.

Consider `CS(=O)(=O)c1ccc(Nc2ncc(-c3ccc(S(C)(=O)=O)cc3)c(OCC(F)(F)F)n2)cc1`, for which the XC50 stood at 401 nM.

`O=c1ccc2ccc(F)c3c2n1CC3CN1CCC(NCc2ccc(-c3cccc(Cl)c3)nc2)CC1` (configuration not stated) displayed an XC50 of 992 nM.

Regarding `COc1ccccc1C1CCN(C2CCC(NC(=O)/C=C/c3cc(C(F)(F)F)cc(C(F)(F)F)c3)CC2)CC1` (configuration not stated), the XC50 is 1200 nM.

Take `CCCCc1cc(NCC)nc(Nc2ccc(F)cc2)n1`: the XC50 is 790 nM.

`OC(c1ccccc1)C1CN(CCc2ccccc2)CCC1(O)c1ccccc1` (configuration not stated): the XC50 was 1040 nM.

`O=c1cc(NCCCNCc2cc(Cl)cc(Cl)c2OCc2ccc(Cl)cc2)[nH]c2ccccc12`: the XC50 is 693 nM.

Turning to `N#Cc1ccc(N/C(=N\c2cccc(Cl)c2Cl)NCc2ccc(Cl)cc2Cl)c(O)c1`, the XC50 amounted to 1120 nM.

The compound `O=C(NC(Cc1ccccc1)C(=O)O)c1cc(=O)c2ccccc2o1` (configuration not stated) registered an XC50 of 191 nM.

`O=C(Nc1ccc2c(c1)CCN2C1CCN(Cc2ccc(F)cc2Cl)C1)c1ccco1` (configuration not stated) showed an XC50 of 470 nM.

In turn, `COc1ccccc1C1CCN(C2CCC(NC(=O)/C=C/c3cc(F)cc(F)c3)CC2)CC1` (configuration not stated) came in with an XC50 of 1110 nM.

In turn, `Cc1cc2nc(-c3cc(Br)ccc3O)c(-c3cc(Br)ccc3O)nc2cc1C` displayed an XC50 of 853 nM.

As to `Cc1ccccc1CN1CCCN(Cc2ccc(C(=O)Nc3ccc(C(C)(C)C)cc3)cc2)CC1`, the XC50 was 863 nM.

In the case of `COc1cc(Cl)c(C)cc1N(Cc1ccccc1-c1ccccc1)S(=O)(=O)c1ccc(C(F)(F)F)cc1`, the XC50 came to 1050 nM.

In turn, `COc1cncc(/C=C/c2cncc(C(=O)NCCc3ccc(Cl)cc3Cl)c2)c1` returned an XC50 of 879 nM.

Compound `CC(C)c1ccc(NC(=O)Nc2ccc(CCNCCCc3ccccc3)cc2)cc1` gave an XC50 of 761 nM.

With `N#Cc1cccc(NC(=O)Nc2ccc3c(c2)CN(Cc2c[nH]c4ncccc24)C3)c1`, the XC50 was found to be 800 nM.

Compound `c1cc(C2=NC3CCCCC3N2)ccc1OCCCCCOc1ccc(C2=NC3CCCCC3N2)cc1` (configuration not stated) yielded an XC50 of 228 nM.

For the compound `Cc1cccc2nc(-c3cccc(-c4ccc(NC(=O)c5cccnc5)cc4)c3)[nH]c12`, the XC50 came out at 594 nM.

The compound `O=[N+]([O-])c1ccccc1/C=N/Nc1ccnc2cc(Cl)ccc12` had an XC50 of 876 nM.

As to `Nc1nc(N)c2c(ccc3c2ccn3CC2CC2)n1`, the XC50 was determined as 211 nM.

`COc1c(Br)cc(Br)cc1-c1ccc(CN2CC3CCC2CC3)[nH]1` yielded an XC50 of 693 nM.

`COc1cc(F)c2nccc([C@@H](O)CN3CCC(NC(=O)OCc4ccccc4)C(F)C3)c2c1` (some centres not stated) came in with an XC50 of 407 nM.

In turn, `Cc1cccc2nc(-c3ccc(-c4ccc(CN5CCN(c6cnccn6)CC5)cc4)s3)[nH]c12` registered an XC50 of 750 nM.

The compound `COc1cc(CNCCCNc2nc3ncccc3[nH]2)c2[nH]cc(Br)c2c1` had an XC50 of 1160 nM.

In the case of `CCN1CCN(CCCNc2c3ccc(Cl)cc3nc3ccc(O)cc23)CC1`, the XC50 was 566 nM.

In the case of `CS(=O)(=O)c1ccc(CNCc2ccc(-c3cccc(-c4nc5cc(F)ccc5[nH]4)c3)cc2)cc1`, the XC50 was found to be 315 nM.

For the compound `O=S(=O)(NC1CCN(c2ccnc3ccccc23)C1)c1ccc(OC(F)(F)F)cc1` (configuration not stated), the XC50 was 1080 nM.

Compound `CC(=O)Nc1ncc(C(=O)Nc2ccc(-c3cccc(-c4nc5cc(F)ccc5[nH]4)c3)cc2)s1` had an XC50 of 354 nM.

`COc1cc(Cc2cnc(N)nc2N)cc(OCCCCC#N)c1OC` displayed an XC50 of 1040 nM.

The compound `Cc1ccc(NC(=O)NC2CCN(c3ccnc4cc(Cl)ccc34)C2)cc1` (configuration not stated) showed an XC50 of 149 nM.

The compound `Cc1ccc(Nc2cc(C)nn2-c2nc(C)cc(O)n2)cc1` displayed an XC50 of 864 nM.

Consider `Cc1ccc(-n2c(Sc3ncnc4sccc34)nnc2N2CCCC2)cc1`, for which the XC50 amounted to 263 nM.

`Oc1ccc(-c2cncc(NCc3ccc(F)c(F)c3)c2)cc1` returned an XC50 of 768 nM.

For the compound `O=C(NCc1cccc2ccccc12)C(c1cc2ccccc2o1)N1CCN(C(c2ccccc2)c2ccccc2)CC1` (configuration not stated), the XC50 amounted to 667 nM.

With `CC1(CCCCN2CCC(Cc3ccccc3)CC2)C(=O)Nc2ccccc21` (configuration not stated), the XC50 was determined as 855 nM.

The compound `Fc1ccc2[nH]c(-c3ccc(-c4ccc(CN5CCC(CCN6CCCCC6)CC5)cc4)cc3)nc2c1` registered an XC50 of 129 nM.

The compound `CCOC(=O)c1[nH]c2ccc(F)cc2c1NC(=O)CN1CCN(c2cccc(C(F)(F)F)c2)CC1` showed an XC50 of 458 nM.

With `CC(C)c1ccc(CN2CCC(NC(=O)c3ccc(-c4cccc(F)c4)s3)CC2)cc1`, the XC50 came out at 1330 nM.

On to `O=C(O)Cc1ccc(-c2c[nH]c3ncc(-c4cccc5ncccc45)cc23)cc1`, for which the XC50 was determined as 847 nM.

The compound `Fc1cccc(COc2ccc(Nc3ncnc4sc(C#C[C@H]5CC[C@H](CNCC(F)(F)F)N5)cc34)cc2Cl)c1` registered an XC50 of 1420 nM.

`CN1CCC(OC(=O)c2cc3cc(-c4ccccc4)ccc3n2S(=O)(=O)c2ccccc2)CC1` gave an XC50 of 1090 nM.

`CC(C)(C)c1ccc2[nH]c(-c3ccc(/C=C/C(=O)NCc4cccc(C(F)(F)F)c4)cc3)nc2c1`: the XC50 is 986 nM.

Consider `Cc1ccc2[nH]c(-c3cc(-c4cccc(C#N)c4)cnc3N)nc2c1`, for which the XC50 was 117 nM.

Compound `Cc1ccc(NC(=O)c2ccc(N3CCN(c4ccncc4)CC3)cn2)cc1F` registered an XC50 of 1570 nM.

In turn, `COc1cc(NC(=O)c2cccs2)c(C(=O)NCc2ccc(C)cc2)cc1OC` had an XC50 of 1360 nM.
